Test results from patent US5610155A, “Condensed diazepinones, processes for preparing them and agents containing these compounds for treating diseases of the central nervous system and for promoting cerebral blood circulation” (Dr. Karl Thomae GmbH, priority 1995, dated 1997).
“Also recorded” adds a separate entry of the source.

How the values were obtained:
[1] = molecular target: T1, M1 (Cortex) (Rattus norvegicus, UniProt P08482); assay: Receptor binding test in vitro, M1 (cerebral cortex), [3H]pirenzepine; parameters: species or system rat (male Wistar); conditions: 1 nM [3H]pirenzepine, 90 min, ambient temperature, pH 7.5
T1 construct: The cerebral cortex, heart and salivary glands were removed, washed and homogenised; from tissue; host or cells: cerebral cortex of male Wistar rats (Chbb: THOM)
T1 sequence (P08482 1-460): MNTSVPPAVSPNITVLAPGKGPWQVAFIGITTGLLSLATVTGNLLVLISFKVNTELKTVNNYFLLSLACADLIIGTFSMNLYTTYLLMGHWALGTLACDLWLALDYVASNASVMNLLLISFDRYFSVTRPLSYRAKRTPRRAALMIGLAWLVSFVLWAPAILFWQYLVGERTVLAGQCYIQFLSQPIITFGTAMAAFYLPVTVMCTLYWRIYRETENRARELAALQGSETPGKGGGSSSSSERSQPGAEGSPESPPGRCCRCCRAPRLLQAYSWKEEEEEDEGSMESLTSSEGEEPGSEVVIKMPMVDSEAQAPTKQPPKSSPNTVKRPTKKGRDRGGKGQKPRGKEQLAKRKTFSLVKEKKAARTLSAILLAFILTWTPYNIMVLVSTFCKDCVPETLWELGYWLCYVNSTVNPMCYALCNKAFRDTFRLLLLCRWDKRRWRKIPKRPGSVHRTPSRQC

[2] = molecular target: T2, M2 (Heart) (Rattus norvegicus, UniProt P10980); assay: Receptor binding test in vitro, M2 (heart), [3H]NMS; parameters: species or system rat (male Wistar); conditions: 0.3 nM [3H]NMS, 40 min, ambient temperature, pH 7.5
T2 construct: The cerebral cortex, heart and salivary glands were removed, washed and homogenised; from tissue; host or cells: heart of male Wistar rats (Chbb: THOM)
T2 sequence (P10980 1-466): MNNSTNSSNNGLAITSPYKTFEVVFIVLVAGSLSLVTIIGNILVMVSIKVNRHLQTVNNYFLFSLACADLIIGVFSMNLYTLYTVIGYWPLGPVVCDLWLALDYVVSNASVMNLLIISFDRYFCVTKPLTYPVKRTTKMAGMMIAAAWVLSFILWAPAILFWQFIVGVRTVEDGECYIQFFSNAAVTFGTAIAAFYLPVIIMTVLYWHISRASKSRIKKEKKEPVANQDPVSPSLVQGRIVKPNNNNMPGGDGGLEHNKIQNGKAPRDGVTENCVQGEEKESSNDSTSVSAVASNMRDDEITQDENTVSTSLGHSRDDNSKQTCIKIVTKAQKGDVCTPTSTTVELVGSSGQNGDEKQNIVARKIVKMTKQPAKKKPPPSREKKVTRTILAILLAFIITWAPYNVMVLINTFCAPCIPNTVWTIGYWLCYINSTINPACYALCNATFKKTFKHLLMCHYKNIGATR

[3] = molecular target: T3, M3 (Submandibular gland) (Rattus norvegicus, UniProt P08483); assay: Receptor binding test in vitro, M3 (submandibular/salivary gland), [3H]NMS; parameters: species or system rat (male Wistar); conditions: 0.3 nM [3H]NMS, 40 min, ambient temperature, pH 7.5
T3 construct: The cerebral cortex, heart and salivary glands were removed, washed and homogenised; from tissue; host or cells: salivary (submandibular) glands of male Wistar rats (Chbb: THOM)
T3 sequence (P08483 whole entry): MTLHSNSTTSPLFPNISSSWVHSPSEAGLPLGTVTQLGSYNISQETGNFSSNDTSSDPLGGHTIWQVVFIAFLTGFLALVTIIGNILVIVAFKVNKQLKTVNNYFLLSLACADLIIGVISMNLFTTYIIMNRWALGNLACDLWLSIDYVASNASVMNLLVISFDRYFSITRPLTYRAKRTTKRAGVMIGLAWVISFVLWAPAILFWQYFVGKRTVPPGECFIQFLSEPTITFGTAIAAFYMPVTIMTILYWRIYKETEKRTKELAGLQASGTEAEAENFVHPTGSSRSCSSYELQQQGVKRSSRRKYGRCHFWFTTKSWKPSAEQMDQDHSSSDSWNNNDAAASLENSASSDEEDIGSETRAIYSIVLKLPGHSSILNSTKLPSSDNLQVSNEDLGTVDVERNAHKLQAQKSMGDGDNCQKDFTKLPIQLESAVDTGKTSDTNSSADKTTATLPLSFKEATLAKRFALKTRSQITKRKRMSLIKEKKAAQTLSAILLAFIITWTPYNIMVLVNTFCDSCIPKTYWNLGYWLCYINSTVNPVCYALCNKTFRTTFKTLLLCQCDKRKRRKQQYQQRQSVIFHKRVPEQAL

[4] = literature: Hunter and Roberts 1988; Hunter et al. 1986; Sutherland et al. 1982; Wishaw 1985; cited from earlier work
[5] = test system: arecoline-induced increase in blood pressure; assay: Investigation for central activity: arecoline test, CNS-penetration in vivo; parameters: species or system rat; conditions: for ED50: Rattus norvegicus, iv, read-out: ED50, reduction in the arecoline-induced increase in blood pressure
Protocol: Principle: Arecoline has both a central and a peripherally active component. […] Cerebroavailable antimuscarinics block this central effect. Method: Male rats weighing 300 g are anaesthetised i.p. with urethane (1.2 g/kg). The trachea is […], the animals are respirated with an air/oxygen mixture (80 breaths per minute). The blood pressure is recorded after canulation of the carotid artery by means of a pressure recorder (Bell and Howell Type 4-327-I). The test substances are administered through the jugular vein ([…]). […] The arecoline is administered (in doses of 0.3 mg/kg) at 15 minute intervals. After 2 comparison values, the test substance is injected in increasing doses 5 minutes before the next administration of arecoline. The results obtained were compared with the average starting values and determined as the percentage inhibition.

[6] = test system: 24 months old learning-impaired rats; assay: Effect on the memory in the Morris water maze (aged rats); format: in vivo, rat; conditions: 24 months old rats, 0.2 mg/kg s.c., 4 days, FIG. 1, vs physiological saline
Protocol: The tests were carried out using the water maze described by R. G. M. Morris in Learn Motive 12: 239-249 (1981) using the test method described therein.
On the first day, rats which were 24 months old and therefore learning-impaired (n=7 per group) were given 0.2 mg/kg of compound D by subcutaneous route whilst another group of these animals were given physiological saline solution (s.c.).

Row | SMILES | Ki [1] [nM] | Ki [2] [nM] | Ki [3] [nM] | Learning ability and memory performance (in words) [4] | ED50 [5] [mg/kg] | Effect on arecoline-mediated central effects / increase in blood pressure (in words) ([5]; rat, i.v.) | Memory performance in the Morris water maze (in words) [6]
1 | Cc1scc2c1N(C(=O)CCC#CCN1CCCCCC1)c1ccccc1NC2=O [P] | 35 | 7.6 | 30 | – | – | – | –
2 | CN(CCC1CCCN1C)CC(=O)N1c2ccccc2C(=O)Nc2cccnc21 (stereo not shown) [R] | 7.1 | 3 | 30 | – | – | – | –
3 | CN1CCN(CC(=O)N2c3ccccc3C(=O)Nc3cccnc32)CC1 [pirenzepine] | – | – | – | a deterioration in learning ability and memory performance was observed | – | – | –
4 | CN(CCC1CCCCCN1C)CC(=O)N1c2ccccc2C(=O)Nc2cccnc21 (stereo not shown) [S] | 16 | 3 | 25 | – | – | – | –
5 | O=C1Nc2cccnc2N(C(=O)CCCCCN2CCCCC2)c2ccccc21 [Substance O, 5,11-dihydro-11-[1-oxo-6-(1-piperidinyl)-1-hexyl]-6H-pyrido[2,3-b][1,4]benzodiazepin-10-one, reference compound] | 10 | 5 | 40 | – | – | – | –
6 | CCN(CC)CCCCC1CCN(CC(=O)N2c3ccccc3C(=O)Nc3cccnc32)CC1 [I] | 20 | – | 151 | – | – | – | –
7 | CCCN(CCC)CC1CCCCN1CCNC(=O)N1c2ccccc2C(=O)Nc2cccnc21 (stereo not shown) [L] | 30 | 7.9 | – | – | > 10 | no effect on the increase in blood pressure caused by arecoline | –
8 | Cc1scc2c1N(C(=O)CN1CCC(CCCN3CCCCC3)CC1)c1ccccc1NC2=O [N] | 7.9 | 2 | 6 | – | – | – | –
9 | O=C1Nc2cccnc2N(C(=O)N2CCCC(CCCN3CCCCC3)C2)c2ccccc21 (stereo not shown) [M] | 13 | 2 | 13 | – | – | – | –
10 | CCN(CC)CC1COCCN1CCCC(=O)N1c2ccccc2C(=O)Nc2cccnc21 (stereo not shown) [Q] | 50 | 20 | 50 | – | – | – | –
11 | O=C1Nc2cccnc2N(C(=O)CCC#CCN2CCCCC2)c2ccccc21 [J] | 794 | 120 | 1820 | – | – | – | –
12 | CCN(CC)CC1CCCCN1CC(=O)N1c2ccccc2C(=O)Nc2cccnc21 (stereo not shown) [H] | – | – | 2000 | – | – | – | –

Now from value to compound, other results behind:

Row | Ki [1] [nM] | Ki [2] [nM] | Ki [3] [nM] | SMILES | Learning ability and memory performance (in words) [4] | ED50 [5] [mg/kg] | Effect on arecoline-mediated central effects / increase in blood pressure (in words) ([5]; rat, i.v.) | Memory performance in the Morris water maze (in words) [6]
13 | 600 | 25 | 750 | CCN(CCCC1CCN(CC(=O)N2c3ccc(C)cc3C(=O)Nc3cccnc32)CC1)C(=O)C(C)(C)CC [Substance G, 5,11-dihydro-8-methyl-11-[[4-[3-[(2,2-dimethyl-1oxobutyl)ethylamino]propyl]-1-piperidinyl]acetyl]-6H-pyrido[2,3-b][1,4]benzodiazepin-6-one] | – | 5.1 | – | –
14 | 900 | 65 | 1500 | CCN(CCCC1CCN(CC(=O)N2c3ccccc3C(=O)Nc3cccnc32)CC1)C(=O)C(C)(C)C [Substance F, 5,11-Dihydro-11-[[4-[3-[(2,2-dimethyl-1-oxopropyl)ethylamino]propyl]-1-piperidinyl]acetyl]-6H-pyrido[2,3-b][1,4]benzodiazepin-6-one] | – | 6.5 | – | –
15 | 150 | 15 | 300 | CCCC(C)(C)C(=O)N(CC)CCCC1CCN(CC(=O)N2c3ccccc3C(=O)Nc3cccnc32)CC1 [Substance B] | – | 1.3 | – | –
16 | 866 | 25 | 916 | CCCC(C)(C)C(=O)N(CC)CCCC1CCN(CC(=O)N2c3ccc(Cl)cc3C(=O)Nc3cccnc32)CC1 [Substance D, 5,11-dihydro-8-chloro-11-[[4-[3-[(2,2-dimethyl-1-oxopentyl)-ethylamino]propyl]-1-piperidinyl]-acetyl]-6H-pyrido[2,3-b][1,4]benzodiazepin-6-one] | – | 5 | – | improved memory performance; also recorded: reached the same level as the control groups of young rats
17 | 1000 | 100 | 1500 | CCN(CCCC1CCN(CC(=O)N2c3ccc(C)cc3C(=O)Nc3cccnc32)CC1)C(=O)C(C)(C)C [Substance E, 5,11-dihydro-8-methyl-11-[[4-[3-[(2,2-dimethyl-1-oxopropyl)-ethylamino]propyl]-1-piperidinyl]acetyl]-6H-pyrido[2,3-b][1,4]benzodiazepin-6-one] | – | 2.8 | – | –
18 | 500 | 25 | 750 | CCN(CCCC1CCN(CC(=O)N2c3ccccc3C(=O)Nc3cccnc32)CC1)C(=O)C(C)(C)CC [Substance A, 5,11-dihydro-11-[[4-[3-[(2,2-dimethyl-1-oxobutyl]-ethylamino]-propyl]-1-piperidinyl]acetyl]-6H-pyrido[2,3-b][1,4]benzodiazepin-6-one] | – | 4.5 | – | –
19 | 500 | 38 | 875 | CCCC(C)(C)C(=O)N(CC)CCCCC1CCN(CC(=O)N2c3ccccc3C(=O)Nc3cccnc32)CC1 [Substance C, 5,11-dihydro-11-[[4-[4-[(2,2-dimethyl-1-oxopentyl)-ethylamino]butyl]-1-piperidinyl]acetyl]-6H -pyrido [2,3-b][1,4]benzodiazepin-6-one] | – | 2 | – | –
